Patent publication US20150315202A1, “CHLORIN DERIVATIVE USEFUL IN PHOTODYNAMIC THERAPY AND DIAGNOSIS” (RMW CHO GROUP LIMITED, priority 2012, published 2015)
Entries after “also recorded” stand apart in the source; their conditions may differ. Like-named read-outs stand apart in the source and are kept apart here.

Key:
S180 sarcoma = assay: Photodynamic therapy study with mice with subcutaneous S180 sarcoma; type: in vivo, Kunming mice; settings: for Pathological changes of tumour tissues (HE staining): 24 hours after the treatment; for Living tumour cells versus control group D (FCM) / Proportions of apoptotic and necrotic tumour cells versus control group D (FCM): 24 hours after treatments; for Mean tumour volume versus control group D: 21 days after the treatments, P<0.05; for Tumour appearance after treatment (eschars): after treatments; for Sizes of tumours versus control group D: six days after the treatments; for Tumour inhibition rate: tail vein: Duteroporphyrin 10 mg/kg, chlorin e4 sodium 20 mg/kg, 5-ALA 100 mg/kg, laser 20 minutes, 180 J/cm^2
Experimental: In this experiment the effects of photodynamic therapy mediated by three different photosensitizers, namely Duteroporphyrin, chlorin e4 sodium and 5-ALA, on mouse S180 sarcoma were observed. Duteroporphyrin and 5-ALA are porphyrin derivatives.
40 Kunming mice with well grown subcutaneous S180 sarcoma were randomly divided into four groups: (A) Duteroporphyrin group (10 mg/kg), (B) chlorin e4 sodium group (20 mg/kg), (C) 5-ALA group (100 mg/kg) and (D) blank control group. The mice in groups A and B were subjected to irradiation 8-10 hours after tail vein injection of the photo sensitizers, while the mice in group C were subjected to irradiation 3 hours after tail vein injection of the photosensitizer. A laser with a wavelength of 630 nm was used for groups A and C, while a duel-frequency laser with wavelengths of 660 nm and 760 nm was used for group B. The local tumour sites were irradiated vertically, with the diameter of the laser spots being 1.2-1.5 cm. The whole tumour and 3-5 mm of normal tissue around the tumour were covered by the laser. The lasers were applied to groups A, B and C for 20 minutes, with a power density of 150 mW/cm^2 and an energy density of 180 J/cm^2. The mice in control group D were not subjected to irradiation.

[1] = air-saturated water and ethanol; literature value of the reference; cited from earlier work
[2] = literature value of the reference, cited from earlier work
[3] = tested on: indomethacin-induced gastric lesions; settings: rats; cited from earlier work
[4] = tested on: TAA- or CCl4-induced acute liver injuries; settings: mice; cited from earlier work
[5] = tested on: advanced non-small cell lung cancer; assay: Clinical study with patients suffering from advanced non-small cell lung cancer; type: in vivo, human
Experimental: Through pathology or cytology diagnosis, 66 advanced non-small cell lung cancer patients were selected and randomly divided into two groups. Group A had 32 patients who were treated with chlorin e4 sodium. Group B had 34 patients who were treated with both chemotherapy and radiotherapy.
For group A, chlorin e4 sodium was administered at a dosage of 2 mg per kilogram of body weight, with two thirds administered by inhalation and one third administered orally. After the irradiation target(s) had been determined, an optical fibre for laser treatment purposes was guided into the lung tumor(s) via an interstitial procedure. Irradiation light intensity was 200 J/cm^2, irradiation power was 1,000 mW, and irradiation lasted for eight to ten minutes. Laser irradiation into the tumor was two to five centimeters in depth. Irradiation was either performed phase by phase (sub-paragraph treatment) based on tumor size or performed repeatedly.
For group B, for the radiotherapy, a 15 MV X-ray radiation therapy irradiation field covered primary lung tumor lesion(s) and mediastinal lymphatic drainage area, with a dosage of 65-70 Gy, administered on every first day in a week of radiotherapy. For the chemotherapy, 20 mg cisplatin was administered by intravenous application.

[6] = treatment of various human ailments; cited from earlier work
[7] = group A (32 patients): chlorin e4 sodium 2 mg/kg inhalation and oral + interstitial laser, group B (34 patients): cisplatin 20 mg iv + radiotherapy

Compound	Pathological changes of tumour tissues (HE staining) (S180 sarcoma)	Living tumour cells versus control group D (FCM) (S180 sarcoma)	Proportions of apoptotic and necrotic tumour cells versus control group D (FCM) (S180 sarcoma)	Mean tumour volume versus control group D (S180 sarcoma)	Tumour appearance after treatment (eschars) (S180 sarcoma)	Sizes of tumours versus control group D (S180 sarcoma)	Tumour inhibition rate (S180 sarcoma)	other results
NCC(=O)CCC(=O)O [5-ALA]	a wide range of tumour necrosis, tumour vascular disruption and neutrophil infiltration	obviously fewer	a lot higher	statistically significantly smaller	thinner and brownish red in colour	no obvious difference	37.2%	Recovery of skins and fur (S180 sarcoma; after the eschars had fallen off): fully recovered; also recorded: fastest in skin repairing
CC1=Cc2cc3[nH]c(cc4nc(cc5[nH]c(cc1n2)cc5C)C(C)=C4CCC(=O)O)c(CCC(=O)O)c3C [Duteroporphyrin]	a wide range of tumour necrosis, tumour vascular disruption and neutrophil infiltration	obviously fewer	a lot higher	statistically significantly smaller	Black eschars	no obvious difference	62.5%	Recovery of skins and fur (S180 sarcoma; mouse, in vivo): fully recovered
O=S(=O)(O)c1ccc(-c2c3nc(c(-c4ccc(S(=O)(=O)O)cc4)c4ccc([nH]4)c(-c4ccc(S(=O)(=O)O)cc4)c4nc(c(-c5ccc(S(=O)(=O)O)cc5)c5ccc2[nH]5)C=C4)C=C3)cc1 [TPPS, m-tetrakis(p-sulfonatophenyl)porphine]								Fluorescence quantum yield [1]: 0.08; Quantum yield of singlet oxygen photogeneration ([2]; ethanol and detergent containing water): 0.7; Quantum yield of singlet oxygen photogeneration ([2]; water): 0.6
C=Cc1c(C)c2cc3nc(c(C)c4[nH]c(cc5nc(cc1[nH]2)C(C)=C5CC)c(C)c4C(=O)O)[C@@H](CCC(=O)O)[C@@H]3C [chlorin e4]								Effect against indomethacin-induced gastric lesions [3]: protective effect; Effect against TAA- or CCl4-induced acute liver injuries [4]: protective effect
N.N.[Cl][Pt][Cl] [cisplatin, reference compound]								One year survival rate [5, 7]: 70.60%; Two years survival rate [5, 7]: 32.35%; Combined complete and partial remission rate ([5]; group A: chlorin e4 sodium 2 mg/kg + interstitial laser, group B: cisplatin 20 mg iv + radiotherapy): 21.30%
tri-sodium copper(II) chlorin e6								Toxicity and side effects [6]: no evidence of toxicity, skin sensitization or other serious side effects
